According to US10316017B2, “COT modulators and methods of use thereof” (Gilead Sciences, Inc., priority 2015, dated 2019):

Experiments:
[1] = tested on: TNFα production in LPS-stimulated human monocytes; assay: Cot Monocyte TNFα Cell Based Assay; details: Homo sapiens, Monocyte, LPS-stimulated human monocytes, TNFα TR-FRET; read-out: EC50 TNF
Method in brief: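 Percent-of-control values derive from TR-FRET ratios of TNFα in spun-down media, referenced to unstimulated and LPS-stimulated wells. Exposure: 1 h compound preincubation, then 50 pg/ml LPS for 4 h, both at 37 °C, with 0.5% final DMSO.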

[2] = target: T1, human Cot catalytic domain (30-397 amino acids) (Homo sapiens, UniProt P41279); assay: High Throughput Cot Biochemical Assay (KinEASE TR-FRET); details: Cot KinEASE TR-FRET, 400 μM ATP; read-out: IC50 HTRF
T1 construct: Purified recombinant human Cot catalytic domain (30-397 amino acids) was purchased from Cama Biosciences; purchased Cama Biosciences (so in the source)
T1 sequence (P41279 30-397): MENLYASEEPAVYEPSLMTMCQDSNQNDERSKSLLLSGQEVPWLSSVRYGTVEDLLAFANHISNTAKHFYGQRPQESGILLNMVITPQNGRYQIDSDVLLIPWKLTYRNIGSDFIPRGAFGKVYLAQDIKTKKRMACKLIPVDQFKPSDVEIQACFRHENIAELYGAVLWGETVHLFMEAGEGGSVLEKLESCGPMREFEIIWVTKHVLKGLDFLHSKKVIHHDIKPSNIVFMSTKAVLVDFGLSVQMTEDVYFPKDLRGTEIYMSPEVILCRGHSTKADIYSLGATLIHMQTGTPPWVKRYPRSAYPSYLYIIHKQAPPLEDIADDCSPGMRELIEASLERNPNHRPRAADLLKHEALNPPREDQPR
Method in brief: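 Phosphorylation of 1 μM XL665-STK3 peptide by 5 nM Cot catalytic domain was measured by time-resolved FRET using a europium […] antibody. ATP was 400 μM; buffer was 10 mM MOPS pH 7.0 with Mg2+ and DTT.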

Structure (SMILES) | EC50 [1] | IC50 [2]
CC(C)(C)CNc1c(C#N)cnc2c(C#N)cc(N[C@H](c3cn(C4(C(N)=O)CCCC4)nn3)c3ccccc3Cl)cc12 [Example 1020, (S)-1-(4-((2-chlorophenyl) ((3,8-dicyano-4-(neopentylamino)quinolin-6-yl)amino)methyl)-1H-1,2,3-triazol-1-yl)cyclopentane-1-carboxamide] | 161 nM | 6 nM
CC(C)(C)CNc1c(C#N)cnc2c(C#N)cc(N[C@H](c3cn(C(C)(C)C(N)=O)nn3)c3ccccc3Cl)cc12 [Example 1021, (S)-2-(4-((2-chlorophenyl) ((3,8-dicyano-4-(neopentylamino)quinolin-6-yl)amino)methyl)-1H-1,2,3-triazol-1-yl)-2-methylpropanamide] | 234 nM | 4 nM
CC(C)(C)CNc1c(C#N)cnc2c(C#N)cc(N[C@H](c3cn(C4(C(N)=O)CCOC4)nn3)c3ccccc3Cl)cc12 (stereo partly drawn) [Example 1022, 3-(4-((S)-(2-chlorophenyl) ((3,8-dicyano-4-(neopentylamino)quinolin-6-yl)amino)methyl)-1H-1,2,3-triazol-1-yl)tetrahydrofuran-3-carboxamide] | 503 nM | 7 nM
CC(C)(C)CNc1c(C#N)cnc2c(C#N)cc(N[C@H](c3cn(C4(C(N)=O)CCOCC4)nn3)c3ccccc3Cl)cc12 [Example 1023, (S)-4-(4-((2-chlorophenyl) ((3,8-dicyano-4-(neopentylamino)quinolin-6-yl)amino)methyl)-1H-1,2,3-triazol-1-yl)tetrahydro-2H-pyran-4-carboxamide] | ≥ 1000 nM | 21 nM
Cc1ccccc1[C@H](Nc1cc(C#N)c2ncc(C#N)c(NCC(C)(C)C)c2c1)c1cn(C2(C#N)CC2)nn1 [Example 1024, (S)-6-(((1-(1-cyanocyclopropyl)-1H-1,2,3-triazol-4-yl)(o-tolyl)methyl)amino)-4-(neopentylamino)quinoline-3,8-dicarbonitrile] | 54 nM | 5 nM
CC(C)(C)CNc1c(C#N)cnc2c(C#N)cc(N[C@H](c3cn(C4(C#N)CC4)nn3)c3ccccc3C(F)F)cc12 [Example 1025, (S)-6-(((1-(1-cyanocyclopropyl)-1H-1,2,3-triazol-4-yl)(2-(difluoromethyl)phenyl)methyl)amino)-4-(neopentylamino)quinoline-3,8-dicarbonitrile] | 131 nM | 10 nM
CC(C)(C)CNc1c(C#N)cnc2c(C#N)cc(N[C@H](c3cn(C4(C#N)CC4)nn3)c3ccccc3CO)cc12 [Example 1026, (S)-6-(((1-(1-cyanocyclopropyl)-1H-1,2,3-triazol-4-yl)(2-(hydroxymethyl)phenyl)methyl)amino)-4-(neopentylamino)quinoline-3,8-dicarbonitrile] | 371 nM | 7 nM
CC(C)(C)CNc1c(C#N)cnc2c(C#N)cc(N[C@H](c3cn(C4(C#N)CC4)nn3)c3cccc(C#N)c3Cl)cc12 [Example 1027, (S)-6-(((2-chloro-3-cyanophenyl)(1-(1-cyanocyclopropyl)-1H-1,2,3-triazol-4-yl)methyl)amino)-4-(neopentylamino)quinoline-3,8-dicarbonitrile] | 141 nM | 4 nM
[2H][C@](Nc1cc(Cl)c2ncc(C#N)c(N[C@H](CC)c3ccccc3)c2c1)(c1ccc(F)cc1)c1cn(C2(C(F)F)CC2)nn1 [Example 1028, 8-chloro-6-(((S)-(1-(1-(difluoromethyl)cyclopropyl)-1H-1,2,3-triazol-4-yl)(4-fluorophenyl)methyl-d)amino)-4-(((R)-1-phenylpropyl)amino)quinoline-3-carbonitrile] | 259 nM | 17 nM
[2H][C@@](Nc1cc(C#N)c2ncc(C#N)c(NCC(C)(C)C)c2c1)(c1cn(C(C)(C)C)nn1)c1ccccc1Cl [Example 1029, (S)-6-(((1-(tert-butyl)-1H-1,2,3-triazol-4-yl)(2-chlorophenyl)methyl-d)amino)-4-(neopentylamino)quinoline-3,8-dicarbonitrile] | 225 nM | 14 nM
[2H][C@](Nc1cc(C#N)c2ncc(C#N)c(NCC(C)(C)C)c2c1)(c1cn(C2(C#N)CC2)nn1)c1ccccc1Cl [Example 1030, 6-(((2-chlorophenyl)(1-(1-cyanocyclopropyl)-1H-1,2,3-triazol-4-yl)methyl-d)amino)-4-(neopentylamino)quinoline-3,8-dicarbonitrile] | 82 nM | 5 nM
CC(C)(C)CNc1c(C#N)cnc2c(Cl)cc(N[C@@H](c3cccc(-n4cncn4)c3)c3cn(C4CC4)nn3)cc12 [Example 1031, (S)-6-(((3-(1H-1,2,4-triazol-1-yl)phenyl)(1-cyclopropyl-1H-1,2,3-triazol-4-yl)methyl)amino)-8-chloro-4-(neopentylamino)quinoline-3-carbonitrile] | 118 nM | 1 nM
CC(C)(C)CNc1c(C#N)cnc2c(Cl)cc(N[C@@H](c3cccc(-n4ccnc4)c3)c3cn(C4CC4)nn3)cc12 [Example 1032, (S)-6-(((3-(1H-imidazol-1-yl)phenyl)(1-cyclopropyl-1H-1,2,3-triazol-4-yl)methyl)amino)-8-chloro-4-(neopentylamino)quinoline-3-carbonitrile] | 161 nM | 1 nM
CC(C)(C)CNc1c(C#N)cnc2c(Cl)cc(N[C@@H](c3cccc(-n4cccn4)c3)c3cn(C4CC4)nn3)cc12 [Example 1033, (S)-6-(((3-(1H-pyrazol-1-yl)phenyl)(1-cyclopropyl-1H-1,2,3-triazol-4-yl)methyl)amino)-8-chloro-4-(neopentylamino)quinoline-3-carbonitrile] | 456 nM | 2 nM
[2H][C@](Nc1cc(C#N)c2ncc(C#N)c(NC3CCCC3(C)C)c2c1)(c1ccc(F)cc1)c1cn(C2CC2)nn1 (stereo partly drawn) [Example 1034, 6-(((S)-(1-cyclopropyl-1H-1,2,3-triazol-4-yl)(4-fluorophenyl)methyl-d)amino)-4-((2,2-dimethylcyclopentyl)amino) quinoline-3,8-dicarbonitrile] | 93 nM | 4 nM
CC(C)(CO)CNc1c(C#N)cnc2c(C#N)cc(N[C@H](c3cn(C4(C)CC4)nn3)c3ccccc3Cl)cc12 [Example 1035, (S)-6-(((2-chlorophenyl)(1-(1-methylcyclopropyl)-1H-1,2,3-triazol-4-yl)methyl)amino)-4-((3-hydroxy-2,2-dimethylpropyl)amino)quinoline-3,8-dicarbonitrile] | 316 nM | 19 nM
CC(C)(C)CNc1c(C#N)cnc2c(C#N)cc(N[C@H](c3cn(C4(CF)CC4)nn3)c3ccccc3Cl)cc12 [Example 1036, (S)-6-(((2-chlorophenyl)(1-(1-(fluoromethyl)cyclopropyl)-1H-1,2,3-triazol-4-yl)methyl)amino)-4-(neopentylamino)quinoline-3,8-dicarbonitrile] | 195 nM | 9 nM
CC(C)(C)CNc1c(C#N)cnc2c(-c3cncnc3)cc(N[C@H](c3cn(C4(C)CC4)nn3)c3ccccc3Cl)cc12 [Example 1037, (S)-6-(((2-chlorophenyl)(1-(1-methylcyclopropyl)-1H-1,2,3-triazol-4-yl)methyl)amino)-4-(neopentylamino)-8-(pyrimidin-5-yl)quinoline-3-carbonitrile] | ≥ 1000 nM | 102 nM
Cc1c([C@H](Nc2cc(Cl)c3ncc(C#N)c(NCC(C)(C)C)c3c2)c2cn(C3(C(F)(F)F)CC3)nn2)cccc1-n1cccn1 [Example 1038, (S)-8-chloro-6-(((2-methyl-3-(1H-pyrazol-1-yl)phenyl)(1-(1-(trifluoromethyl)cyclopropyl)-1H-1,2,3-triazo1-4-yl)methyl)amino)-4-(neopentylamino)quinoline-3-carbonitrile] | 566 nM | 10 nM
Cc1c([C@H](Nc2cc(Cl)c3ncc(C#N)c(NCC(C)(C)C)c3c2)c2cn(C3(C(F)(F)F)CC3)nn2)cccc1-n1nccn1 [Example 1039, (S)-8-chloro-6-(((2-methyl-3-(2H-1,2,3-triazol-2-yl)phenyl)(1-(1-(trifluoromethyl)cyclopropyl)-1H-1,2,3-triazol-4-yl)methyl)amino)-4-(neopentylamino)quinoline-3-carbonitrile] | 496 nM | 19 nM
Cc1c([C@H](Nc2cc(Cl)c3ncc(C#N)c(NCC(C)(C)C)c3c2)c2cn(C3(C(F)(F)F)CC3)nn2)cccc1-n1cncn1 [Example 1040, (S)-8-chloro-6-(((2-methyl-3-(1H-1,2,4-triazol-1-yl)phenyl)(1-(1-(trifluoromethyl)cyclopropyl)-1H-1,2,3-triazol-4-yl)methyl)amino)-4-(neopentylamino)quinoline-3-carbonitrile] | 87 nM | 4 nM
Cc1c([C@H](Nc2cc(Cl)c3ncc(C#N)c(NCC(C)(C)C)c3c2)c2cn(C3(C(F)(F)F)CC3)nn2)cccc1-n1ccnc1 [Example 1041, (S)-6-(((3-(1H-imidazol-1-yl)-2-methylphenyl)(1-(1-(trifluoromethyl)cyclopropyl)-1H-1,2,3-triazol-4-yl)methyl)amino)-8-chloro-4-(neopentylamino)quinoline-3-carbonitrile] | 86 nM | 4 nM
Cc1c([C@H](Nc2cc(C#N)c3ncc(C#N)c(NCC(C)(C)C)c3c2)c2cn(C3(C(F)(F)F)CC3)nn2)cccc1-n1ccnc1 [Example 1042] | 105 nM | 2 nM
